{"source": "patent US12285434B2", "about": "“Therapeutic, preventive, or improvement agent for inflammatory disease and allergic disease” (The University of Tokyo, priority 2018, dated 2025)", "key": {"[1]": {"test_system": "DSS-induced colitis model mice", "assay": "DSS-induced colitis: colitis severity (body weight, fecal score, colon length)", "type": "in vivo, mouse (C57BL/6)", "conditions": "Day 14; 50 μg/kg/day intraperitoneally on Days 9, 11 and 13", "source_text": "C57BL/6 strain mice (male, 8 to 12 weeks old) were fed with water containing 2% dextran sodium sulfate (manufactured by MP Bio, hereinafter sometimes referred to as “DSS”) for 4 days to prepare colitis model mice (hereinafter, sometimes referred to as “colitis group” in Examples 7 to 10). The mice taken with DSS for 4 days were fed with normal water from Day 5. The DSS intake start date was defined as Day 1 of the test, and the day before the DSS intake start date was defined as Day 0 of the test. In addition, a group in which C57BL/6 strain mice (male, 8 to 12 weeks old) were fed with normal water was defined as a “healthy group” (the same applies to Examples 8 to 10).\nIn order to evaluate colitis severity, the fecal condition was evaluated and the body weight was measured daily for the colitis model mice and healthy group prepared in the above item (1). The fecal condition was evaluated based on the following five-grade fecal scores. Specifically, the fecal scores were 0: normal; 1: soft but still formed; 2: very soft; 3: diarrhea; and 4: bloody feces. In addition, the colon length was measured as an index of the colitis severity.\nTo investigate the role of 5,6-DiHETE in the healing phase, the colitis model mice prepared in Example 7(1) were intraperitoneally injected with 5,6-DiHETE (manufactured by Cayman Chemical) (50 μg/kg/day) or HC-067047 (manufactured by Cayman Chemical) (1 mg/kg/day) on Days 9, 11 and 13 of the test (hereinafter, sometimes referred to as “5,6-DiHETE-administered group” and “HC-067047-administered group,” respectively, in Examples 9 and 10). HC-067047 is known to inhibit an increase of calcium ion concentration in endothelial cells.\nThe colitis severity was determined according to the index and criteria described in Example 7(2)."}, "ear vessels of the mice": {"test_system": "ear vessels of the mice", "assay": "In vivo microscopy of ear vessels: FITC-dextran leakage and vascular diameter after histamine", "design": "species or system mouse", "procedure": "To visualize the ear vessels of the mice, 70 kDa fluorescein isothiocyanate-dextran (10 mg/kg, manufactured by Sigma-Aldrich) was injected intravenously. Then, immediately after the administration of fluorescein isothiocyanate-dextran, 5,6-DiHETE (0.1 μg) was administered by instillation (percutaneously administered) as a pretreatment, and this group of mice was designated as a “5,6-DiHETE-administered group.” As a control group, a group of mice not administered with 5,6-DiHETE was designated as a “[…]-administered group”. Then, 15 minutes after the administration by instillation, histamine (400 μg) was administered by instillation (percutaneously administered) into the ventral surface of the ears for both the groups. Next, the mice were placed on the stage of a microscope confocal microscope (ECLIPSE Ti with C1 confocal system, manufactured by Nikon Corporation), and their body temperatures were maintained at 37° C. Dextran leakage and vascular diameter in the ears were monitored every minute in a period from 0 to 30 minutes after the administration of histamine using EZ-C1 Free Viewer (manufactured by Nikon Corporation), and the dextran leakage, artery diameter and vein diameter were quantified according to the description of Omori, K. et al., British Journal of Pharmacology, 171:4879-4889 (2014). It is known that smooth muscle contraction reduces the downstream blood flow and limits the vascular leakage, whereas smooth muscle relaxation (increase of vascular diameter) increases the blood flow, thereby leading to vascular leakage."}, "[2]": {"test_system": "calcium ion concentration in HUVECs", "assay": "Histamine-induced increase of calcium ion concentration (fura-2)", "type": "cell-based, human", "conditions": "histamine 10 μM", "procedure": "These cells (passages 4 to 9) were used for experiments after 4-hour starvation in EBM-2 (manufactured by Lonza K.K.) containing 2% FBS.\nHUVECs were incubated with a calcium fluorescence indicator (3 μg fura-2/AM containing 0.11% Cremophor EL) for 30 minutes and washed with an HEPES buffer three times. […] Then, 5 minutes after the addition of each reagent, histamine was added so as to attain 10 μM. In addition, a group to which histamine was added so as to attain 10 μM without pretreatment was also prepared. A cover slip was placed in a specialized airtight chamber mounted onto the stage of a microscope maintained at 37° C. The HUVECs were excited at 340 nm and 380 nm and the emitted fluorescence signal was measured every 3 seconds at 510 nm for 60 seconds. The fluorescence ratio (R:F340/F380) was determined using a fluorescence imaging system (AQUACOSMOS, manufactured by Hamamatsu Photonics K.K.). After the experiment, 1 μM ionomycin was added and the fluorescence changes were measured in the presence of 0 or 1.5 mM calcium ions. The calcium ion concentration was indicated as A fluorescence ratio. AUC was calculated 1 minute after each stimulus to evaluate the A fluorescence ratio. It is known that the increase of calcium ion concentration in endothelial cells promotes NO production by eNOS phosphorylation and […] smooth muscle cells (Garcia-Cardena, G. et al., Nature, 392: 821-824(1998); and Luo, Z. et al., The Journal of clinical investigation, 106: 493-499(2000))."}, "[3]": {"test_system": "acute lung injury model mice", "assay": "Hydrochloric acid-induced acute lung injury (pneumonia, pulmonary edema)", "type": "in vivo, mouse", "conditions": "50 μg/kg intraperitoneally 5 minutes before and 3 hours after HCl", "procedure": "Fifty (50) μL of 0.1 N hydrochloric acid was nasally administered to 57BL/6 strain mice (male, 8 to 12 weeks old) to prepare acute lung injury model mice (hereinafter, sometimes referred to as “pneumonia group”). On the other hand, 50 μg/kg 5,6-DiHETE (manufactured by Cayman Chemical) was intraperitoneally administered 5 minutes before and 3 hours after the nasal administration of hydrochloric acid (hereinafter, sometimes referred to as “5,6-DiHETE-administered group”).\nThe lungs of the pneumonia group and the 5,6-DiHETE-administered group were collected 6 hours after the nasal administration of hydrochloric acid, fixed in 4% paraformaldehyde for 24 hours, embedded in paraffin, and cut into 2 μm-thick sections. Hematoxylin staining and eosin staining of these sections were performed according to a conventional method.\nThe wet/dry weight ratio was used as an index of pulmonary edema (Rachmilewitz D. et al., Gastroenterology, 97: 326-337(1989)). Specifically, 6 hours after the nasal administration of hydrochloric acid, the lungs were collected and the wet weights were measured. The lungs were then dried at 60° C. for 24 hours, and, thereafter, the dry weight was measured. In addition, the ventilatory capacity of the lungs was evaluated as an index of pneumonia using arterial blood oxygen saturations."}, "[4]": {"conditions": "0.1 μg pretreatment 15 minutes before histamine 400 μg"}}}
{"smiles": "CC/C=C\\C/C=C\\C/C=C\\C/C=C\\C[C@@H](O)[C@@H](O)CCCC(=O)O", "note": "(racemic) [5,6-DiHETE, (±) 5,6-dihydroxy-8Z,11Z,14Z,17Z-eicosatetraenoic acid]", "values": [{"measurement": "colon length", "setting": "[1]", "value": "6.4±0.1", "unit": "cm"}, {"measurement": "fecal score", "setting": "[1]", "value": "decreased to the normal level"}, {"measurement": "relative body weight, of the initial weight", "setting": "[1]", "value": "115.2±2.5", "unit": "%"}, {"measurement": "histamine-induced increase of vein diameter", "setting": "ear vessels of the mice; [4]", "value": "not inhibited"}, {"measurement": "mean fluorescence intensity of FITC-dextran extravasation vs histamine-administered group", "setting": "ear vessels of the mice; [4]", "value": "significantly decreased"}, {"measurement": "artery diameter as compared with arteries nonstimulated with histamine", "setting": "ear vessels of the mice; 0.1 μg pretreatment by instillation 15 minutes before histamine 400 μg", "value": "132±15", "unit": "%"}, {"measurement": "calcium ion concentration, AUC at 1 minute after stimulation", "setting": "[2]; pretreatment 0.03 μM", "value": "7.8±2.3"}, {"measurement": "calcium ion concentration, AUC at 1 minute after stimulation", "setting": "[2]; pretreatment 0.1 μM", "value": "5.9±1.5"}, {"measurement": "calcium ion concentration, AUC at 1 minute after stimulation", "setting": "[2]; pretreatment 0.3 μM", "value": "1.8±1.1"}, {"measurement": "decrease in arterial blood oxygen saturation", "setting": "[3]", "value": "suppressed"}, {"measurement": "epithelial damage and neutrophil tissue infiltration (HE-stained lung)", "setting": "[3]; 6 hours", "value": "suppressed"}, {"measurement": "moisture content of the lung tissue (wet/dry weight ratio)", "setting": "[3]; 6 hours", "value": "significantly reduced except one case"}, {"measurement": "reddishness of lung tissue (appearance)", "setting": "[3]; 6 hours", "value": "improved"}]}
